The results in this text go back to PubChem BioAssay (NCI).

Several values for one entry are separate records, joined by “and”; a condition that tells them apart may be missing. Equal values may be shown once.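 Interpolation was linear, between the two tested concentrations surrounding the appropriate level; five concentrations were tested over 48 hours in 96-well plates. GI50: concentration for 50% inhibition of growth. The concentration for full growth arrest is given as TGI.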 Bounds are passed on as bounds.

Test systems include 786-0 renal; HCC-2998 colon; OVCAR-3 ovarian; IGROV1 ovarian; MDA-MB-435; SF-295 CNS; SK-MEL-5 melanoma; HT29 colon; K-562 leukemia; RXF 393 renal.
What all share (assay): NCI-60 cell line screen, 48 h

With `COc1cc(C2=NOC(c3cc(OC)c(OC)c(OC)c3)C2)ccc1OCCCCOc1cc2c(cc1OC)C(=O)N1CCC[C@H]1C=N2` (some centres not stated), the GI50 is 0.282 µM with 786-0 renal; 0.192 µM in the experiment on HCC-2998 colon; 0.322 µM with OVCAR-3 ovarian; 0.243 µM in the experiment with IGROV1 ovarian; 0.179 µM in the experiment on MDA-MB-435; 0.327 µM with SF-295 CNS. For the same molecule, the results for the GI50 in the experiment with SK-MEL-5 melanoma, in the experiment with HT29 colon and with K-562 leukemia were 0.168 µM, 0.358 µM and 1.72 µM, respectively. Moreover, the TGI in the experiment on 786-0 renal amounted to 0.913 µM; in the experiment on HCC-2998 colon, 0.367 µM; with OVCAR-3 ovarian it was 2.51 µM; in the experiment on IGROV1 ovarian it was 0.537 µM; with MDA-MB-435 it was 0.371 µM; in the experiment on SF-295 CNS, 1.28 µM. The TGI is 0.319 µM in the experiment on SK-MEL-5 melanoma and > 33.2 µM in the experiment on HT29 colon.

Consider `CC1=CC(=Nc2ccc(N(CCCl)CCCl)cc2)C=C(C)C1=O`, for which the GI50 is 0.457 µM in the experiment on 786-0 renal; 2.29 µM in the experiment on HCC-2998 colon; 1.05 µM in the experiment on OVCAR-3 ovarian; 1.67 µM in the experiment on MDA-MB-435; 0.626 µM in the experiment on SF-295 CNS; 1.72 µM with SK-MEL-5 melanoma. For the same molecule, the results for the GI50 in the experiment on HT29 colon and in the experiment on K-562 leukemia were 1.11 µM and 1.21 µM, respectively. In addition, the TGI came out at 2.39 µM in the experiment on 786-0 renal; 9.83 µM with HCC-2998 colon; 3.13 µM in the experiment on OVCAR-3 ovarian; 4.55 µM with MDA-MB-435; 22.6 µM in the experiment on SF-295 CNS; 5.17 µM in the experiment on SK-MEL-5 melanoma. For the same molecule, the TGI in the experiment with HT29 colon is 4.59 µM; in the experiment on K-562 leukemia, > 100 µM.

Regarding `O=c1/c(=C/c2ccco2)sc2nc3ccccc3n12`, the GI50 is > 100 µM with 786-0 renal; > 100 µM with HCC-2998 colon; > 100 µM with OVCAR-3 ovarian; > 10 µM in the experiment with RXF 393 renal; > 100 µM with IGROV1 ovarian; > 100 µM in the experiment on SF-295 CNS. Also, the GI50 in the experiment on SK-MEL-5 melanoma, in the experiment on HT29 colon and in the experiment with K-562 leukemia was > 100 µM each time. The TGI with 786-0 renal, in the experiment with HCC-2998 colon, in the experiment with OVCAR-3 ovarian, in the experiment with RXF 393 renal, in the experiment with IGROV1 ovarian and in the experiment with SF-295 CNS was > 100 µM each time. Further, the TGI with SK-MEL-5 melanoma, with HT29 colon and in the experiment with K-562 leukemia was > 100 µM in each case.

As for `O=C1CCC(=O)N2CCCCN12`, the TGI with 786-0 renal, in the experiment on HCC-2998 colon, in the experiment with OVCAR-3 ovarian, in the experiment with RXF 393 renal, with IGROV1 ovarian and in the experiment with SF-295 CNS was > 100 µM each time. The TGI in the experiment on SK-MEL-5 melanoma, in the experiment with HT29 colon and with K-562 leukemia was > 100 µM throughout.

Take `NC(=O)C(=O)N/N=C(\CC1(O)C(=O)Nc2ccccc21)c1ccc2ccccc2c1` (configuration not stated): the TGI is > 100 µM in the experiment with 786-0 renal; 87.9 µM in the experiment on HCC-2998 colon; 67.3 µM in the experiment on OVCAR-3 ovarian; 41.2 µM in the experiment with RXF 393 renal; > 100 µM in the experiment with IGROV1 ovarian; > 100 µM in the experiment on SF-295 CNS. Also, the figures for the TGI in the experiment with SK-MEL-5 melanoma, with HT29 colon and with K-562 leukemia were > 100 µM, > 100 µM and 61.7 µM, respectively.

Take `Cc1cccc(C)c1NC(=O)C(=O)C1C(=O)NC(=O)NC1=O`: the TGI with 786-0 renal, with HCC-2998 colon, in the experiment on OVCAR-3 ovarian, in the experiment with RXF 393 renal, in the experiment with IGROV1 ovarian and with SF-295 CNS was > 100 µM in each case. Besides, the TGI with SK-MEL-5 melanoma, with HT29 colon and with K-562 leukemia was > 100 µM throughout.

As to `O=C1O[C@@H](c2ccc3c(c2)OCO3)C2C(=O)O[C@@H](c3ccc4c(c3)OCO4)C12` (some centres not stated), the TGI with 786-0 renal, in the experiment on HCC-2998 colon, in the experiment on OVCAR-3 ovarian, in the experiment with RXF 393 renal, in the experiment with IGROV1 ovarian and with SF-295 CNS was > 100 µM throughout. The TGI with SK-MEL-5 melanoma, in the experiment on HT29 colon and in the experiment on K-562 leukemia was > 100 µM in each case.

`CC[C@@H]1C(=O)N(C)c2cnc(Nc3ccc(C(=O)NC4CCN(C)CC4)cc3OC)nc2N1C1CCCC1`: the GI50 was 0.025 µM and 0.0451 µM in the experiment on 786-0 renal; 0.00426 µM and < 0.01 µM in the experiment with HCC-2998 colon; 0.00353 µM and < 0.01 µM with OVCAR-3 ovarian; 0.0047 µM and < 0.01 µM with RXF 393 renal; 0.0147 µM and 0.0189 µM in the experiment with SF-295 CNS; 0.00861 µM and 0.0123 µM in the experiment on SK-MEL-5 melanoma. Besides, the GI50 with HT29 colon is 0.0036 µM and < 0.01 µM; with K-562 leukemia, 0.00367 µM and < 0.01 µM. In addition, the TGI with 786-0 renal is 1.62 µM and 3.98 µM; in the experiment on HCC-2998 colon, 1.42 µM and 0.506 µM; with RXF 393 renal it was 0.627 µM and 0.576 µM; in the experiment with IGROV1 ovarian, 4.15 µM and 11.8 µM; in the experiment on SF-295 CNS it was > 10 µM and 15 µM; in the experiment on SK-MEL-5 melanoma it was 0.205 µM and 0.274 µM. The TGI in the experiment on HT29 colon is > 4.71 µM and 10.3 µM; in the experiment with K-562 leukemia it was > 10 µM and 3.54 µM.

For the molecule `OCC(O)CC[CH2][Sn]([Br])([c]1ccccc1)[c]1ccccc1` (configuration not stated), the GI50 with 786-0 renal, with HCC-2998 colon, with OVCAR-3 ovarian, with RXF 393 renal, in the experiment on IGROV1 ovarian and in the experiment on SF-295 CNS was > 100 µM each time. The GI50 in the experiment on SK-MEL-5 melanoma, in the experiment with HT29 colon and in the experiment on K-562 leukemia was > 100 µM throughout. For the same molecule, the TGI with 786-0 renal, with HCC-2998 colon, in the experiment on OVCAR-3 ovarian, with RXF 393 renal, in the experiment with IGROV1 ovarian and in the experiment with SF-295 CNS was > 100 µM throughout. Also, the TGI in the experiment with SK-MEL-5 melanoma, in the experiment with HT29 colon and in the experiment with K-562 leukemia was > 100 µM each time.

As for `O=C1c2cc(Cl)ccc2S(=O)(=O)c2c(NCCCNCCO)nc3ccccc3c21`, the GI50 in the experiment on 786-0 renal was 1.71 µM; in the experiment on HCC-2998 colon, 4.31 µM; in the experiment on OVCAR-3 ovarian, 0.478 µM; in the experiment on IGROV1 ovarian, 2.88 µM; in the experiment with MDA-MB-435 it was 1.5 µM; in the experiment on SF-295 CNS, 3.26 µM. For the same molecule, the GI50 in the experiment on SK-MEL-5 melanoma was 2.5 µM; in the experiment on HT29 colon it was 1.4 µM. The TGI worked out at 3.34 µM with 786-0 renal; 15.1 µM in the experiment with HCC-2998 colon; 1.66 µM in the experiment with OVCAR-3 ovarian; 9.56 µM in the experiment with IGROV1 ovarian; 3.13 µM with MDA-MB-435; 12.4 µM in the experiment with SF-295 CNS. In addition, the TGI in the experiment on SK-MEL-5 melanoma came to 6.48 µM; in the experiment on HT29 colon, 2.94 µM.

For `CCCCN=C(NC#N)NCCCC`, the TGI in the experiment on 786-0 renal, with HCC-2998 colon, in the experiment on OVCAR-3 ovarian, in the experiment on RXF 393 renal, in the experiment on IGROV1 ovarian and with SF-295 CNS was > 100 µM throughout. The TGI in the experiment on SK-MEL-5 melanoma, in the experiment with HT29 colon and in the experiment on K-562 leukemia was > 100 µM throughout.

With `C/C(CC(=O)Nc1cc(Cl)c(Cl)cc1Cl)=N\NC(N)=O`, the TGI with 786-0 renal, with HCC-2998 colon, in the experiment on OVCAR-3 ovarian, in the experiment with RXF 393 renal, in the experiment on IGROV1 ovarian and with SF-295 CNS was > 100 µM throughout. In addition, the TGI in the experiment with SK-MEL-5 melanoma, in the experiment on HT29 colon and in the experiment with K-562 leukemia was > 100 µM each time.

As for `O=C(/C=C/c1c(O)ccc2ccccc12)c1cccc(O)c1`, the TGI in the experiment on 786-0 renal, in the experiment on HCC-2998 colon, in the experiment with OVCAR-3 ovarian, in the experiment on RXF 393 renal, with IGROV1 ovarian and in the experiment with SF-295 CNS was > 100 µM each time. The TGI in the experiment on SK-MEL-5 melanoma, with HT29 colon and in the experiment with K-562 leukemia was > 100 µM each time.

`CC(C)(CC(=O)Nc1ccccc1)C(=O)O`: the TGI in the experiment with 786-0 renal, in the experiment on OVCAR-3 ovarian, with IGROV1 ovarian, in the experiment on MDA-MB-435, with SF-295 CNS and with SK-MEL-5 melanoma was > 100 µM throughout. In addition, the TGI in the experiment on HT29 colon and in the experiment on K-562 leukemia was > 100 µM in each case.

With `CCC[CH2][Sn]([CH2]CCC)([O]C(=O)c1cccnc1SC)[O]C(=O)c1cccnc1SC`, the GI50 was 0.67 µM with 786-0 renal; 1.3 µM with HCC-2998 colon; 1.33 µM in the experiment with OVCAR-3 ovarian; 0.21 µM in the experiment on RXF 393 renal; 1.38 µM in the experiment on IGROV1 ovarian; 1.38 µM with SF-295 CNS. Besides, the GI50 was 1.27 µM with SK-MEL-5 melanoma, 1.61 µM in the experiment with HT29 colon and 0.0482 µM in the experiment on K-562 leukemia. The TGI in the experiment with 786-0 renal was 1.98 µM; in the experiment with HCC-2998 colon, 2.57 µM; with OVCAR-3 ovarian it was 2.63 µM; in the experiment on RXF 393 renal, 1.12 µM; in the experiment with IGROV1 ovarian, 2.72 µM; in the experiment with SF-295 CNS, 2.67 µM. Also, the TGI amounted to 2.56 µM in the experiment on SK-MEL-5 melanoma, 3.22 µM in the experiment with HT29 colon and 0.372 µM in the experiment on K-562 leukemia.

As to `Cc1ccc2c(c1)[n+]([O-])c(N)n[n+]2[O-]`, the TGI in the experiment with 786-0 renal, in the experiment with OVCAR-3 ovarian, in the experiment on IGROV1 ovarian, in the experiment on MDA-MB-435, in the experiment on SF-295 CNS and with SK-MEL-5 melanoma was > 100 µM each time. Also, the TGI in the experiment with HT29 colon and with K-562 leukemia was > 100 µM each time.

As to `NC(CCC(=O)NC(CSSCCCCS(=O)O)C(=O)NCC(=O)O)C(=O)O` (configuration not stated), the TGI in the experiment on 786-0 renal, in the experiment with HCC-2998 colon, in the experiment on OVCAR-3 ovarian, in the experiment with RXF 393 renal, with IGROV1 ovarian and with SF-295 CNS was > 100 µM each time. Also, the TGI with SK-MEL-5 melanoma, in the experiment with HT29 colon and in the experiment on K-562 leukemia was > 100 µM in each case.
